Measured values reported in patent publication US20120245184A1 (Aderans Research Institute, Inc., priority 2006, published 2012).
Counter-ions that a name gives are not always drawn.

How the values were obtained:
sonic hedgehog pathway [1] = assay: Hedgehog reporter assay (gli-luciferase) in TM3 cells; type: cell-based, mouse; conditions: TM3 mouse Leydig cells, gli-luciferase reporter; read-out: TM3 Avg. EC50
Text: (§1) Mouse (TM3: mouse Leydig cells; S12: mouse embryonic mesenchymal cells) and human (Daoy: human medulloblastoma cell; HepM: human embryonic palatal mesenchymal cell) cell lines are used to screen small molecules for their ability to modulate the activity of the sonic hedgehog pathway (Table 1, Table 2, and Table 3). Stable hedgehog pathway reporter cell lines are established by specific antibiotic selection following transfection of a reporter plasmid containing a luciferase gene located directly downstream from the gli promoter. Consequently, any observable changes in cellular luciferase activity may be attributed to changes in sonic hedgehog pathway activity in mouse and human cells, respectively, since gli is the major by-product of this pathway. To calculate activity, we generate an eleven point dose curve for each compound using 1:3 dilutions in 96 well assay plates. Each plate tested also contains low and high control to establish maximal pathway activation so to establish/compare a percentage activation of each tested compound (AMAX) on respective plates.
(§2) Stable hedgehog pathway reporter cell lines are established following specific antibiotic selection following transfection of a reporter plasmid
(§3) In short, typically cells are plated in MicroTiter-plates at 10,000-20,000 cells per well, in growth media (containing 10%-20% FBS). After 48-72 hrs (HGL and DGL respectively) the media in the assay plates is switched to low-serum containing media (0.5% FBS). At that time compounds are added (at 1-5 μM) to the assay plates, in the presence or absence of hedgehog protein (octyl-modified version; 1-5 ng/ml). After another 24 hrs of incubation, the media from the assay plates is discarded and replaced with luciferase assay-mix. Subsequently, plates are incubated at RT for ˜15-30 mins and then read in a luminometer. [note: addition of the Hedgehog protein, although not critical, will sensitize the assay allowing the identification of weak actives].

sonic hedgehog pathway [2] = assay: Hedgehog reporter assay (gli-luciferase) in S12 cells; type: cell-based; conditions: S12 mouse embryonic mesenchymal cells, read-out: S12 Avg. EC50
Text: as §1, with “respective plates. Also we calculate EC50 values, or a concentration where the pathway will be exactly 50% activated, for each tested compound to determine potency. In these cell lines, compounds that register >20% AMAX values are considered active.” for “respective plates.”
as §2, §3

sonic hedgehog pathway [3] = assay: Human hedgehog reporter assay HEPM-GliLuc (HGL); type: cell-based; conditions: HepM human embryonic palatal mesenchymal cells, gli-luciferase reporter; read-out: HEPM Avg. EC50
Text: as §1, §2, §3

sonic hedgehog pathway [4] = assay: Human hedgehog reporter assay Daoy-GliLuc (DGL); type: cell-based; conditions: Daoy human medulloblastoma cells, gli-luciferase reporter; read-out: Daoy Avg. EC50
In short: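 Stable gli-luciferase reporter lines (mouse TM3; human Daoy and HEPM) switched to 0.5% FBS medium, given compounds at 1-5 μM with or without octyl-modified hedgehog protein (1-5 ng/ml) for 24 hrs. Luminescence read; eleven-point 1:3 dose curves, activation expressed as percentage of plate controls (AMAX).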

Measured: EC50

CNC1CCC(N(Cc2cc(-c3ccnc(C(=O)OC)c3)ccc2OC)C(=O)c2sc3c(F)ccc(F)c3c2Cl)CC1 (centres unmarked) [Compound R5, Methyl 4-(3-{[(3-chloro-4,7-difluoro-benzo[b]thiophene-2-carbonyl)-(4-methylamino-cyclohexyl)-amino]-methyl}-4-methoxy-phenyl)-pyridine-2-carboxylate]
< 50 nM: all assays above

CNC1CCC(N(Cc2cc(-c3ccnc(C(N)=O)c3)ccc2OC)C(=O)c2sc3c(F)ccc(F)c3c2Cl)CC1 (centres unmarked) [Compound 354 (R17), 4-(3-{[(3-Chloro-4,7-difluoro-benzo[b]thiophene-2-carbonyl)-(4-methylamino-cyclohexyl)-amino]-methyl}-4-methoxy-phenyl)-pyridine-2-carboxylic acid amide dihydrochloride]
< 50 nM: all assays above

CNC1CCC(N(Cc2cc(-c3ccncc3)ccc2O)C(=O)c2sc3c(F)ccc(F)c3c2Cl)CC1 (centres unmarked) [Compound 368, 3-Chloro-4,7-difluoro-benzo[b]thiophene-2-carboxylic acid (2-hydroxy-5-pyridin-4-yl-benzyl)-(4-methylamino-cyclohexyl)-amide dihydrochloride]
< 50 nM: sonic hedgehog pathway [2] | sonic hedgehog pathway [3] | sonic hedgehog pathway [4]

CNC1CCC(N(Cc2cc(-c3ccc(C(C)=O)cc3)ccc2OC)C(=O)c2sc3c(F)ccc(F)c3c2Cl)CC1 (centres unmarked) [Compound 332, 3-Chloro-4,7-difluoro-benzo[b]thiophene-2-carboxylic acid (4′-acetyl-4-methoxy-biphenyl-3-ylmethyl)-(4-methylamino-cyclohexyl)-amide hydrochloride]
< 50 nM: all assays above

CNC1CCC(N(Cc2cc(-c3ccc(C(N)=O)cc3)ccc2OC)C(=O)c2sc3ccccc3c2Cl)CC1 (centres unmarked) [Compound 316, 3-Chloro-benzo[b]thiophene-2-carboxylic acid (4′-carbamoyl-4-methoxy-biphenyl-3-ylmethyl)-(4-methylamino-cyclohexyl)-amide hydrochloride]
< 50 nM: sonic hedgehog pathway [1] | sonic hedgehog pathway [2] | sonic hedgehog pathway [3]

CN[C@H]1CC[C@@H](N(Cc2cc(-c3ccc(S(C)(=O)=O)cc3)ccc2OC)C(=O)C2=C(Cl)c3c(C)ccc(C)c3C2)CC1 [Compound 335, 3-Chloro-4,7-difluoro-benzo[b]thiophene-2-carboxylic acid(4′-methanesulfonyl-4-methoxy-biphenyl-3-ylmethyl)-(4-methylamino-cyclohexyl)-amide hydrochloride]
< 50 nM: all assays above

CC[C@H]1CC[C@@H](N(Cc2cc(-c3ccc(C)cc3)ccc2OC)C(=O)C2=C(C)c3c(C)ccc(C)c3C2)CC1 [Compound 334, 3-Chloro-4,7-difluoro-benzo[b]thiophene-2-carboxylic acid[2-methoxy-5-(6-methyl-pyridin-3-yl)-benzyl]-(4-methylamino-cyclohexyl)-amide bis(trifluoroacetate)]
< 50 nM: all assays above

CN[C@H]1CC[C@H](N(Cc2cc(-c3ccc(N)nc3)ccc2OC)C(=O)c2sc3cccc(F)c3c2Cl)CC1 [362 (R13), 3-Chloro-4-fluoro-benzo[b]thiophene-2-carboxylic acid[5-(6-amino-pyridin-3-yl)-2-methoxy-benzyl]-(4-methylamino-cyclohexyl)-amide dihydrochloride]
< 50 nM: all assays above

CNc1cc(-c2ccc(OC)c(CN(C(=O)c3sc4c(F)ccc(F)c4c3Cl)C3CCC(NC)CC3)c2)ccn1 (centres unmarked) [Compound 357, 3-Chloro-4,7-difluoro-benzo[b]thiophene-2-carboxylic acid[2-methoxy-5-(2-methylamino-pyridin-4-yl)-benzyl]-(4-methylamino-cyclohexyl)-amide bis(trifluoroacetate)]
< 50 nM: all assays above

CNC1CCC(N(Cc2cc(-c3ccc(C(=O)N(C)C)cc3)ccc2OC)C(=O)c2sc3ccccc3c2Cl)CC1 (centres unmarked) [Compound 317 (R19), 3-Chloro-benzo[b]thiophene-2-carboxylic acid (4′-dimethylcarbamoyl-4-methoxy-biphenyl-3-ylmethyl)-(4-methylamino-cyclohexyl)-amide hydrochloride]
< 50 nM: sonic hedgehog pathway [1] | sonic hedgehog pathway [2] | sonic hedgehog pathway [3]

CNC1CCC(N(Cc2cc(-c3ccc(C(=O)N(C)C)cc3)ccc2OC)C(=O)c2sc3c(F)ccc(F)c3c2Cl)CC1 (centres unmarked) [Compound 333, 3-Chloro-4,7-difluoro-benzo[b]thiophene-2-carboxylic acid (4′-dimethylcarbamoyl-4-methoxy-biphenyl-3-ylmethyl)-(4-methylamino-cyclohexyl)-amide hydrochloride]
< 50 nM: all assays above

CNC1CCC(N(Cc2cc(-c3cccnc3)ccc2OC)C(=O)c2sc3cccc(F)c3c2Cl)CC1 (centres unmarked) [360 (R16), 3-Chloro-4-fluoro-benzo[b]thiophene-2-carboxylic acid (2-methoxy-5-pyridin-3-yl-benzyl)-(4-methylamino-cyclohexyl)-amide dihydrochloride]
< 50 nM: all assays above

CNC1CCC(N(Cc2cc(-c3ccc(NS(C)(=O)=O)nc3)ccc2OC)C(=O)c2sc3c(F)ccc(F)c3c2Cl)CC1 (centres unmarked) [Compound R10, 3-Chloro-4,7-difluoro-benzo[b]thiophene-2-carboxylic acid[5-(6-methanesulfonylamino-pyridin-3-yl)-2-methoxy-benzyl]-(4-methylamino-cyclohexyl)-amide dihydrochloride]
< 50 nM: sonic hedgehog pathway [1] | sonic hedgehog pathway [2] | sonic hedgehog pathway [3]

CNC1CCC(N(Cc2cc(-c3ccc(CO)cc3)ccc2OC)C(=O)c2sc3ccccc3c2Cl)CC1 (centres unmarked) [Compound 329, 3-Chloro-benzo[b]thiophene-2-carboxylic acid (4′-hydroxymethyl-4-methoxy-biphenyl-3-ylmethyl)-(4-methylamino-cyclohexyl)-amide hydrochloride]
< 50 nM: sonic hedgehog pathway [1] | sonic hedgehog pathway [2] | sonic hedgehog pathway [3]

CNC1CCC(N(Cc2cc(-c3ccc(N)nc3)ccc2OC)C(=O)c2sc3ccccc3c2Cl)CC1 (centres unmarked) [Compound 319, 3-Chloro-benzo[b]thiophene-2-carboxylic acid [5-(6-aminopyridin-3-yl)-2-methoxy-benzyl]-(4-methylamino-cyclohexyl)-amide dihydrochloride]
< 50 nM: sonic hedgehog pathway [1] | sonic hedgehog pathway [2] | sonic hedgehog pathway [3]

CN[C@H]1CC[C@@H](N(Cc2cc(-c3ccnc(C)c3)ccc2OC)C(=O)C2=C(Cl)c3c(C)ccc(F)c3C2)CC1 [Compound 355]
< 50 nM: sonic hedgehog pathway [1] | sonic hedgehog pathway [2] | sonic hedgehog pathway [3]

CN[C@H]1CC[C@@H](N(Cc2cc(-c3ccc(CO)cc3)ccc2OC)C(=O)c2sc3c(C)ccc(C)c3c2Cl)CC1 [Compound 338, 3-Chloro-4,7-difluoro-benzo[b]thiophene-2-carboxylic acid(4′-hydroxymethyl-4-methoxy-biphenyl-3-ylmethyl)-(4-methylamino-cyclohexyl)-amide trifluoroacetate]
< 50 nM: all assays above

CN[C@H]1CC[C@@H](N(Cc2cc(-c3ccc(N(C)C(C)=O)cc3)ccc2OC)C(=O)c2sc3c(C)ccc(C)c3c2C)CC1 [Compound 336, 3-Chloro-4,7-difluoro-benzo[b]thiophene-2-carboxylic acid[4′-(acetyl-methyl-amino)-4-methoxy-biphenyl-3-ylmethyl]-(4-methylamino-cyclohexyl)-amide hydrochloride]
< 50 nM: all assays above
